Reference: article PMC10027881 (Scientific Reports, 2023)
Read-outs that look alike come from different tables or passages of the source.

Tests used:
GST [1] = test: GST expression by western blotting; type: cell-based, human
Method: (§1) Caco2 and hEL cells were cultured in a 100 mm^2 cell culture dish with MEM containing 10% FBS at 37 °C in a humidified atmosphere of 5% CO2. To determine the effects of the treatment conditions, hEL cells were incubated with various concentrations of B(a)P and G-Rg3 in MEM for 48 h. The cells were subjected to further analysis or harvested to prepare cell-free extracts.
(§2) hEL cells were washed using ice-cold PBS and then lysed using radioimmunoprecipitation assay buffer containing a protease inhibitor and phosphatase inhibitors. After protein quantification using a total protein assay kit, 30 µg of protein from each sample was separated by 12% SDS‒PAGE and transferred electrophoretically onto the PVDF membrane. The membranes were blocked using 5% skim milk and then incubated with primary antibodies overnight at 4 °C. After incubation with horseradish peroxidase-conjugated secondary antibody, enhanced chemiluminescent reagent was added to visualize the binding signals. The intensity of each protein band was quantified using ImageJ software.

GST [2] = test: GST activity assay kit; type: cell-based, human
Method: hEL cells were seeded in 96-well plates at a density of 1 × 10^4 cells per well and treated with 10 µM B(a)P in the absence or presence of 10 µM G-Rg3 for 48 h. GST activity was measured using a commercial GST activity assay kit according to the manufacturer’s protocols. The relative activation of GST was measured by using a microplate reader for absorbance at 450 nm.

Nrf2 = Nrf2 expression by western blotting; type: cell-based, human
Method: as §1, §2

Caco-2 cells = conditions: cited from earlier work
[3] = Side effects in the model mice: body weight, plasma ALT and Cr; type: in vivo, A/J mice; conditions: G-Rg3 treatment groups vs control group
Method: (§3) All experiments were performed in accordance with relevant guidelines and regulations, and the study was conducted in accordance with Animal Research: Reporting of in vivo Experiments (ARRIVE) guidelines. […] One week later, the mice were randomly divided into control and different treatment groups with 15 mice per group, and treatment was performed once every day via oral gavage. Following 20 weeks of treatment, the animals were sacrificed by CO2 asphyxiation. The lungs were collected and fixed for 24 h. Quantification of the surface tumor count and individual tumor size on each lung was performed under a dissecting microscope. The tumor volume (V) estimation was calculated using the following expression: V (mm^3) = 4/3πr^3, where r is the tumor diameter. The net sum of all the volumes of tumors in a mouse lung was the total tumor volume, with the mean total tumor volume per group represented the tumor load. Whole blood and intestine samples were collected and stored at − 80 °C for UPLC‒MS/MS assays. Serum was collected and analyzed for alanine transaminase (ALT) and serum creatinine (Cr) levels by an automatic biochemical analyzer to evaluate liver and kidney function.

[4] = test system: lung tumors induced by B(a)P in A/J mice; test: B(a)P-induced lung tumorigenesis in A/J mice, tumor load; type: in vivo; conditions: G-Rg3 study, 20-weeks treatment; control 1.63 ± 0.40
Method: The mice were sacrificed by CO2 asphyxiation after the 20th week of red ginseng treatment.
as §3

[5] = UPLC-MS/MS levels of ginsenosides in blood/plasma and intestine after 20-weeks treatment; type: in vivo, A/J mice; conditions: for concentration at 20 weeks: A/J, mouse
Method: All experiments were approved by the laboratory animal ethics committee of Tongji Medical College, Huazhong University of Science and Technology (approval no. 2019; file no. 4587TH). All experiments were performed in accordance with relevant guidelines and regulations, and the study was conducted in accordance with Animal Research: Reporting of in vivo Experiments (ARRIVE) guidelines. Eight-week-old A/J mice were given an initial intraperitoneal injection of B(a)P in tricaprylin (100 mg/kg in 0.2 mL). One week later, the mice were randomly divided into control and different treatment groups with 15 mice per group, and treatment was performed once every day via oral gavage. Following 20 weeks of treatment, the animals were sacrificed by CO2 asphyxiation. The lungs were collected and fixed for 24 h. Quantification of the surface tumor count and individual tumor size on each lung was performed under a dissecting microscope. The tumor volume (V) estimation was calculated using the following expression: V (mm^3) = 4/3πr^3, where r is the tumor diameter. The net sum of all the volumes of tumors in a mouse lung was the total tumor volume, with the mean total tumor volume per group represented the tumor load. Whole blood and intestine samples were collected and stored at − 80 °C for UPLC‒MS/MS assays. Serum was collected and analyzed for alanine transaminase (ALT) and serum creatinine (Cr) levels by an automatic biochemical analyzer to evaluate liver and kidney function.
As described above, the collected samples were retrieved from cold storage, thawed, weighed, and placed in a test tube. To this, 0.5 µM phloridzin (internal standard) in 0.8 mL of methanol solution was added. Then, the tissue was homogenized using a Tissue-Tearor and the homogenate was subsequently transferred into a 1.5 mL microcentrifuge tube. The mixture was centrifuged for 15 min at 15,500 rpm. Following the removal of […] of the supernatant, nitrogen–based drying was performed. Two hundred microliters of methanol was used for reconstitution. Blood was collected and processed on the same lines and used as a reference for all measurements.

Caco-2 monolayer = test: Transcellular transport across the Caco-2 monolayer; type: in vitro ADME; conditions: for Pb-a compared with Pa-b: no verapamil
Method: This assay was performed in accordance with an earlier study.
The cells were subjected to washing using HBSS and preincubation at 37 °C following 3 weeks of culture. […] Collection of 100 µL medium was performed at the indicated times (0, 15, 30, 45, 60, 90, and 120 min), and 100 µL HBSS was added to replenish this volume. These samples were stored at […] until UPLC‒MS/MS assays. The expression Papp = dQ/(dT × A × C0) was utilized to quantify the apparent unidirectional permeability for both the apical and basolateral sides and vice versa (Pa-b and Pb-a, respectively); dQ/dT represents the concentration change, A (0.6 cm^2) represents the monolayer surface area, and C0 represents the initial donor concentration. The efflux ratio was calculated as Pb-a/Pa-b, which represents the degree of efflux transport of the study drug.

hEL cells = test: Cell viability (MTS) assay; type: cell-based, human; conditions: compound alone, 0-20 µM, 48 h
Method: Caco2 and hEL cells were cultured in a 100 mm^2 cell culture dish with MEM containing 10% FBS at 37 °C in a humidified atmosphere of 5% CO2. […] The cells were subjected to further analysis or harvested to prepare cell-free extracts.
A commercially available MTS assay kit was used, and cells were subjected to the standard protocol followed by measurement at 490 nm wavelength with a microplate reader.

[6] = test system: BPDE-DNA adducts in hEL cells; test: BPDE-DNA adduct formation (ELISA kit); type: cell-based, human; conditions: for BPDE-DNA adduct level: 10 µM B(a)P cotreatment with 10 µM G-Rg3, 48 h; for BPDE-DNA adducts: B(a)P and G-Rg3 cotreatment
Method: After treatment for 48 h, DNA was extracted from hEL cells using the QIAamp DNA Mini Kit according to the manufacturer’s protocol. BPDE-DNA adduct formation was detected using the BPDE-DNA adduct ELISA kit. The relative BPDE-DNA adduct levels were measured using a microplate reader for absorbance at 450 nm.

[7] = test system: rat pulmonary epithelial cells; design: method as in PMID 17357179; conditions: in the presence of verapamil; cited from earlier work
[8] = cited from earlier work
[9] = verapamil 50 or 100 µM vs no verapamil
[10] = 10 µM B(a)P cotreatment with 10 µM G-Rg3
[11] = 10 µM B(a)P cotreatment with 10 µM G-Rg3, 48 h

Structure (SMILES): c1ccc2c(c1)cc1ccc3cccc4ccc2c1c34 [B(a)P, benzo(a)pyrene, reference compound]
- GST expression (GST [1]; 10 µM B(a)P alone, G-Rg3r groups): 59.7 ± 8.2%
- GST expression (GST [1]; 10 µM B(a)P alone, G-Rg3s groups): 39 ± 4.5%
- GST activity (GST [2]; 10 µM B(a)P only, 48 h): 35.7 ± 7.8%
- level of Nrf2 (Nrf2; B(a)P only, G-Rg3r experiment): 51.3 ± 6.8%
- level of Nrf2 (Nrf2; B(a)P only, G-Rg3s experiment): 41 ± 9.8%

Structure (SMILES): CC(C)=CCC[C@](C)(O[C@@H]1O[C@H](CO)[C@@H](O)[C@H](O)[C@H]1O)[C@H]1CC[C@]2(C)[C@@H]1[C@H](O)C[C@@H]1[C@@]3(C)CC[C@H](O)C(C)(C)[C@@H]3CC[C@]12C [Compound K]
- intracellular levels spiked by a factor of (Caco-2 cells): 40

Structure (SMILES): CC(C)=CCC[C@](C)(O)[C@H]1CC[C@]2(C)[C@@H]1[C@H](O)C[C@@H]1[C@@]3(C)CC[C@H](O[C@@H]4O[C@H](CO)[C@@H](O)[C@H](O)[C@H]4O[C@@H]4O[C@H](CO)[C@@H](O)[C@H](O)[C@H]4O)C(C)(C)[C@@H]3CC[C@]12C [G-Rg3, ginsenoside Rg3]
- body weight loss or clinical signs of toxicity [3]: No significant body weight loss or clinical signs of toxicity

Structure (SMILES): CC(C)=CCCC(C)(O)C1CCC2(C)C1C(O)CC1C3(C)CCC(OC4OC(CO)C(O)C(O)C4OC4OC(CO)C(O)C(O)C4O)C(C)(C)C3CCC12C (stereo not shown) [G-Rg3r, ginsenoside Rg3]
- tumor load [4]: 0.75 ± 0.29 mm^3
- concentration at 20 weeks ([5]; intestine, oral, with verapamil coadministered (dose not stated), read-out: level in the intestine): 1350 ± 130 ng/g
- concentration at 20 weeks ([5]; intestine, oral, read-out: level in the intestine): 530 ± 80 ng/g
- concentration at 20 weeks ([5]; plasma, oral, with verapamil coadministered (dose not stated), read-out: plasma level): 1170 ± 470 nM
- concentration at 20 weeks ([5]; plasma, oral, read-out: plasma level): 440 ± 320 nM
- Pa-b (apical to basolateral) (Caco-2 monolayer; 10 µM G-Rg3, 50 µmol/L verapamil): 0.73 ± 0.06
- Pa-b (apical to basolateral) (Caco-2 monolayer; 10 µM G-Rg3, 100 µmol/L verapamil): 1.14 ± 0.09
- Pa-b (apical to basolateral) (Caco-2 monolayer; 10 µM G-Rg3, no verapamil): 0.38 ± 0.06
- Pb-a compared with Pa-b (Caco-2 monolayer): significantly higher
- average Pb-a after verapamil treatment (Caco-2 monolayer; [9]): significant decrease
- cytotoxicity on hEL cells (hEL cells): nontoxic
- BPDE-DNA adduct level [6]: 1.87 ± 0.33
- BPDE-DNA adducts ([6]; control siRNA group): 1.47 ± 0.21
- BPDE-DNA adducts ([6]; siNrf2 group): 3.0 ± 0.21
- GST expression (GST [1]; [10]): 103.7 ± 15.5%
- GST activity (GST [2]; [11]): 96.3 ± 6.6%
- level of Nrf2 (Nrf2; B(a)P-G-Rg3 cotreatment): 106 ± 9.5%

Structure (SMILES): CC(C)=CCCC(C)(O)C1CCC2(C)C1C(O)CC1C3(C)CCC(OC4OC(CO)C(O)C(O)C4OC4OC(CO)C(O)C(O)C4O)C(C)(C)C3CCC12C (stereo not shown) [G-Rg3s, ginsenoside Rg3]
- tumor load [4]: 0.81 ± 0.30 mm^3
- plasma and intestine levels when verapamil was coadministered, in words ([5]; after 20-weeks treatment): followed a similar pattern
- Pb-a compared with Pa-b (Caco-2 monolayer): significantly higher
- average Pb-a after verapamil treatment (Caco-2 monolayer; [9]): significant decrease
- transport (Pa-b) after verapamil treatment, in words (Caco-2 monolayer; [9]): followed a similar pattern
- cytotoxicity on hEL cells (hEL cells): nontoxic
- BPDE-DNA adduct level [6]: 1.93 ± 0.48
- BPDE-DNA adducts ([6]; control siRNA group): 1.8 ± 0.32
- BPDE-DNA adducts ([6]; siNrf2 group): 3.6 ± 0.45
- GST expression (GST [1]; [10]): 110 ± 11.1%
- GST activity (GST [2]; [11]): 92.3 ± 6.5%
- level of Nrf2 (Nrf2; B(a)P-G-Rg3 cotreatment): 117 ± 6.2%

Structure (SMILES): CC(C)=CCC[C@](C)(O[C@@H]1O[C@H](CO)[C@@H](O)[C@H](O)[C@H]1O)[C@H]1CC[C@]2(C)[C@@H]1[C@H](O)C[C@@H]1[C@@]3(C)CC[C@H](O)C(C)(C)[C@@H]3[C@@H](O[C@@H]3O[C@H](CO)[C@@H](O)[C@H](O)[C@H]3O)C[C@]12C [Rg1]
- levels in rat pulmonary epithelial cells [7]: increased

Structure (SMILES): CC(C)=CC/C=C(\C)[C@H]1CC[C@]2(C)[C@@H]1[C@H](O)C[C@@H]1[C@@]3(C)CC[C@H](O[C@@H]4O[C@H](CO)[C@@H](O)[C@H](O)[C@H]4O[C@@H]4O[C@H](CO)[C@@H](O)[C@H](O)[C@H]4O)C(C)(C)[C@@H]3CC[C@]12C [Rg5]
- ginsenoside in the blood ([5]; after 20-weeks KRGB treatment, oral): 0.0063 ± 0.0005 µg/mL

Structure (SMILES): CC(C)=CCC[C@](C)(O)[C@H]1CC[C@]2(C)[C@@H]1[C@H](O)C[C@@H]1[C@@]3(C)CC[C@H](O[C@@H]4O[C@H](CO)[C@@H](O)[C@H](O)[C@H]4O)C(C)(C)[C@@H]3CC[C@]12C [ginsenoside Rh2]
- bioavailability ([8]; initial value, without cyclosporine A): 1%
- bioavailability ([8]; with cyclosporine A treatment): more than 30%
